Read-outs that look alike come from different tables or passages of the source.
Legend:
[1] = system: Key Broadleaf Weed and Crop Species; test: Post-Emergent Test II (Table 5); type: in vivo; conditions: post-emergence, 336 h; for pest or weed control at 70 g/ha: application rate 70 (kg ai/ha; footnote: g ai/ha); for pest or weed control at 140 g/ha: application rate 140 (kg ai/ha; footnote: g ai/ha)
Method in brief: (§1)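 Growth stage at treatment: first or second true leaf. Application: compound in acetone/DMSO diluted into an adjuvant-containing aqueous mix, sprayed at 187 L/ha at several rates. Assessment: visual 0-100% injury at 14 days against untreated plants.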

[2] = system: Key Grass and Sedge Weeds as well as Grass Crops; test: Post-Emergent Test II (Table 6); type: in vivo; conditions: post-emergence, 336 h, 14 days after application; for pest or weed control at 70 g/ha: 70 g ai/ha; for pest or weed control at 140 g/ha: 140 g ai/ha
Method in brief: as §1

[3] = Abutilon theophrasti, ABUTH: velvetleaf (Abutilon theophrasti), read-out: Visual Growth Reduction (%) 14 Days After Application ABUTH
[4] = Amaranthus retroflexus, AMARE: redroot pigweed (Amaranthus retroflexus), read-out: Visual Growth Reduction (%) 14 Days After Application AMARE
[5] = Brassica napus, BRSSS: oilseed rape, canola (Brassica napus), read-out: Visual Growth Reduction (%) 14 Days After Application BRSSS
[6] = Chenopodium album, CHEAL: lambsquarters (Chenopodium album), read-out: Visual Growth Reduction (%) 14 Days After Application CHEAL
[7] = Euphorbia heterophylla, EPHHL: wild poinsettia (Euphorbia heterophylla), read-out: Visual Growth Reduction (%) 14 Days After Application EPHHL
[8] = Helianthus annuus, HELAN: sunflower (Helianthus annuus), read-out: Visual Growth Reduction (%) 14 Days After Application HELAN
[9] = Viola tricolor, VIOTR: wild pansy (Viola tricolor), read-out: Visual Growth Reduction (%) 14 Days After Application VIOTR
[10] = CYPSS, read-out: Visual Growth Reduction (%) 14 Days After Application CYPSS
[11] = DIGSA: crabgrass (Digitaria sanguinalis), read-out: Visual Growth Reduction (%) 14 Days After Application DIGSA
[12] = ECHSS, read-out: Visual Growth Reduction (%) 14 Days After Application ECHSS
[13] = ORYSS (crop), read-out: Visual Growth Reduction (%) 14 Days After Application ORYSS
[14] = SETFA: giant foxtail (Setaria faberi), read-out: Visual Growth Reduction (%) 14 Days After Application SETFA
[15] = SORVU: grain sorghum (Sorghum vulgare), read-out: Visual Growth Reduction (%) 14 Days After Application SORVU
[16] = TRZSS (crop), read-out: Visual Growth Reduction (%) 14 Days After Application TRZSS
[17] = ZEAMX: maize, corn (Zea mays), read-out: Visual Growth Reduction (%) 14 Days After Application ZEAMX

| Structure (SMILES) | pest or weed control at 70 g/ha [1, 3] | pest or weed control at 140 g/ha [1, 3] | pest or weed control at 70 g/ha [1, 4] | pest or weed control at 140 g/ha [1, 4] | pest or weed control at 70 g/ha [1, 5] | pest or weed control at 140 g/ha [1, 5] | pest or weed control at 70 g/ha [1, 6] | pest or weed control at 140 g/ha [1, 6] | pest or weed control at 70 g/ha [1, 7] | pest or weed control at 140 g/ha [1, 7] | pest or weed control at 70 g/ha [1, 8] | pest or weed control at 140 g/ha [1, 8] | pest or weed control at 70 g/ha [1, 9] | pest or weed control at 140 g/ha [1, 9] | pest or weed control at 70 g/ha [2, 11] | pest or weed control at 140 g/ha [2, 11] | pest or weed control at 70 g/ha [2, 12] | pest or weed control at 140 g/ha [2, 12] | pest or weed control at 70 g/ha [2, 13] | pest or weed control at 140 g/ha [2, 13] | further results |
| --- | --- | --- | --- | --- | --- | --- | --- | --- | --- | --- | --- | --- | --- | --- | --- | --- | --- | --- | --- | --- | --- |
| COC(=O)c1nc(-c2ccc(Cl)c(F)c2CF)cc(N)c1Cl [Compound 78, methyl 4-amino-3-chloro-6-(4-chloro-3-fluoro-2-(fluoromethyl)phenyl)picolinate] | 95 to 100% | 95 to 100% | 95 to 100% | 95 to 100% | 95 to 100% | 95 to 100% | 95 to 100% | 95 to 100% | 0 to 29% | 0 to 29% | 85 to 94% | 85 to 94% | 0 to 29% | 0 to 29% | 0 to 29% | 0 to 29% | 0 to 29% | 0 to 29% | 0 to 29% | 0 to 29% | pest or weed control at 70 g/ha [2, 10]: 45 to 59%; pest or weed control at 140 g/ha [2, 10]: 45 to 59%; pest or weed control at 70 g/ha [2, 14]: 0 to 29%; pest or weed control at 140 g/ha [2, 14]: 0 to 29%; pest or weed control at 70 g/ha [2, 15]: 0 to 29%; pest or weed control at 140 g/ha [2, 15]: 0 to 29%; pest or weed control at 70 g/ha [2, 16]: 0 to 29%; pest or weed control at 140 g/ha [2, 16]: 0 to 29%; pest or weed control at 70 g/ha [2, 17]: 0 to 29%; pest or weed control at 140 g/ha [2, 17]: 0 to 29% |
| Nc1cc(-c2ccc(Cl)c(F)c2CO)nc(C(=O)O)c1Cl [Compound 11, 4-Amino-3-chloro-6-(4-chloro-3-fluoro-2-(hydroxymethyl)phenyl)picolinic acid] | 0 to 29% | 0 to 29% | 0 to 29% | 0 to 29% | 0 to 29% | 0 to 29% | 0 to 29% | 75 to 84% | 0 to 29% | 0 to 29% | 0 to 29% | 0 to 29% | 0 to 29% | 0 to 29% | 0 to 29% | 0 to 29% | 0 to 29% | 0 to 29% | 0 to 29% | 0 to 29% | pest or weed control at 70 g/ha [2, 10]: 0 to 29%; pest or weed control at 140 g/ha [2, 10]: 0 to 29%; pest or weed control at 70 g/ha [2, 14]: 0 to 29%; pest or weed control at 140 g/ha [2, 14]: 0 to 29%; pest or weed control at 70 g/ha [2, 15]: 0 to 29%; pest or weed control at 140 g/ha [2, 15]: 0 to 29%; pest or weed control at 70 g/ha [2, 16]: 0 to 29%; pest or weed control at 140 g/ha [2, 16]: 0 to 29%; pest or weed control at 70 g/ha [2, 17]: 0 to 29%; pest or weed control at 140 g/ha [2, 17]: 0 to 29% |
| COC(=O)c1nc(-c2ccc(Cl)c(F)c2SC)cc(N)c1Cl [Compound 58] | 85 to 94% | 85 to 94% | 85 to 94% | 95 to 100% | 30 to 44% | 60 to 74% | 95 to 100% | 95 to 100% | 0 to 29% | 0 to 29% | 0 to 29% | 75 to 84% | 0 to 29% | 0 to 29% | 0 to 29% | 0 to 29% | 0 to 29% | 0 to 29% | 0 to 29% | 0 to 29% | pest or weed control at 70 g/ha [2, 14]: 0 to 29%; pest or weed control at 140 g/ha [2, 14]: 0 to 29%; pest or weed control at 70 g/ha [2, 15]: 0 to 29%; pest or weed control at 140 g/ha [2, 15]: 0 to 29%; pest or weed control at 70 g/ha [2, 16]: 0 to 29%; pest or weed control at 140 g/ha [2, 16]: 0 to 29%; pest or weed control at 70 g/ha [2, 17]: 0 to 29%; pest or weed control at 140 g/ha [2, 17]: 0 to 29% |

From US10765114B2, “4-amino-6-(pyridyl and 2-substitutedphenyl)-picolinates and 6-amino-2-(pyridyl and 2-substitutedphenyl)-pyrimidine-4-carboxylates and their use as herbicides” (Dow AgroSciences LLC, priority 2013, dated 2020)
